From ChEMBL document CHEMBL1149481, “Inhibitors of epidermal growth factor receptor tyrosine kinase: optimisation of potency and in vivo pharmacokinetics” (Bioorg Med Chem Lett, 2006)

Key:
[1] = physchem
[2] = test system: Rattus norvegicus; assay: AUC in Wistar rat at 5 mg/kg, po normalized to 1 mg/kg; format: ADME, organism-based, Plasma; conditions: in vivo
[3] = Bioavailability in Wistar rat at 2 mg/kg, iv and 5 mg/kg, po; format: ADME, organism-based; conditions: in vivo
[4] = Clearance in Wistar rat at 2 mg/kg, iv and 5 mg/kg, po; format: ADME, organism-based; conditions: in vivo
[5] = Volume of distribution in Wistar rat at 2 mg/kg, iv and 5 mg/kg, po; format: ADME, organism-based; conditions: in vivo, read-out: Vdss
[6] = test system: Mus musculus; assay: Free drug level in mouse plasma at 50 mg/kg, po at 24 hrs; format: ADME, organism-based; set-up: dose 50 mg/kg, route oral; conditions: in vivo
[7] = test system: Mus musculus; assay: Free drug level in mouse plasma at 50 mg/kg, po at 4 hrs; format: ADME, organism-based; set-up: dose 50 mg/kg, route oral; conditions: in vivo
[8] = test system: Rattus norvegicus; assay: AUC in Wistar rat at 10 mg/kg, po normalized to 1 mg/kg; format: ADME, organism-based, Plasma; conditions: in vivo
[9] = in vivo; conditions: Wistar, rat, iv, 2 mg/kg
[10] = Volume of distribution in Wistar rat at 2 mg/kg, iv and 10 mg/kg, po; format: ADME, organism-based; conditions: in vivo, read-out: Vdss
[11] = test system: Mus musculus; assay: Free drug level in mouse plasma at 50 mg/kg, po at 2 hrs; format: ADME, organism-based; set-up: dose 50 mg/kg, route oral; conditions: in vivo
[12] = Bioavailability in Wistar rat at 2 mg/kg, iv and 10 mg/kg, po; format: ADME, organism-based; conditions: in vivo
[13] = test system: Mus musculus; assay: Free drug level in mouse plasma at 50 mg/kg, po at 6 hrs; format: ADME, organism-based; set-up: dose 50 mg/kg, route oral; conditions: in vivo
[14] = AUC in nude mouse xenografted with human LoVo cell at 100 mg/kg, po; format: ADME, organism-based; set-up: dose 100 mg/kg, route oral; conditions: in vivo
[15] = AUC in nude mouse xenografted with human LoVo cell at 50 mg/kg, po, twice daily; format: ADME, organism-based; set-up: dose 50 mg/kg; conditions: in vivo
[16] = AUC in nude mouse xenografted with human LoVo cell at 50 mg/kg, po; format: ADME, organism-based; set-up: dose 50 mg/kg, route oral; conditions: in vivo
[17] = Half life in rat; format: ADME, organism-based; conditions: in vivo
[18] = Cmax in nude mouse xenografted with human LoVo cell at 50 mg/kg, po; format: ADME, organism-based; set-up: dose 50 mg/kg, route oral; conditions: in vivo
[19] = Cmax in nude mouse xenografted with human LoVo cell at 50 mg/kg, po, twice daily; format: ADME, organism-based; set-up: route oral, dose 50 mg/kg; conditions: in vivo
[20] = Cmax in nude mouse xenografted with human LoVo cell at 100 mg/kg, po; format: ADME, organism-based; set-up: dose 100 mg/kg, route oral; conditions: in vivo
[21] = Terminal half life in cancer affected human; format: ADME, organism-based; conditions: in vivo, read-out: beta t1/2 (converted)
[22] = Terminal half life in human; format: ADME, organism-based; conditions: in vivo, read-out: beta t1/2 (converted)
[23] = Volume of distribution in rat; format: ADME, organism-based; conditions: in vivo

COc1cc2ncnc(Nc3cccc(Cl)c3F)c2cc1OCC1CCN(C)CC1
pKa [1]: 9.3

COc1cc2ncnc(Nc3cc(Cl)ccc3F)c2cc1OC1CCN(CC(N)=O)CC1
pKa [1]: 6.7

COc1cc2ncnc(Nc3cc(Cl)ccc3F)c2cc1OC1CCN(C)CC1
pKa [1]: 8.8

COc1cc2ncnc(Nc3cccc(Cl)c3F)c2cc1OC1CCN(C)CC1
AUC [2]: 0.08 µM·h | pKa [1]: 8.8 | bioavailability [3]: 74% | clearance [4]: 129 mL/min/kg | Vd [5]: 20.8 L/kg

COCCN1CCC(Oc2cc3c(Nc4cccc(Cl)c4F)ncnc3cc2OC)CC1
AUC [2]: 0.95 µM·h | pKa [1]: 8.1 | bioavailability [3]: 30% | clearance [4]: 11 mL/min/kg | Vd [5]: 1.3 L/kg

COCCN1CCC(Oc2cc3c(Nc4cc(Cl)ccc4F)ncnc3cc2OC)CC1
pKa [1]: 8.1

COc1cc2ncnc(Nc3ccc(F)c(Cl)c3)c2cc1OCC1CCN(C)CC1
pKa [1]: 9.3

COc1cc2ncnc(Nc3cccc(Cl)c3F)c2cc1OC1CCN(CC(N)=O)CC1
AUC [2]: 0.59 µM·h | pKa [1]: 6.7 | bioavailability [3]: 27% | clearance [4]: 16 mL/min/kg | Vd [5]: 2.7 L/kg

COc1cc2ncnc(Nc3ccc(F)c(Cl)c3)c2cc1OC1CCN(C)CC1
pKa [1]: 8.8

COc1cc2ncnc(Nc3cc(Cl)ccc3F)c2cc1OCCCN1CCOCC1
Cp [6]: 0 nM | Cp [7]: 360 nM | AUC [8]: 1.64 µM·h | clearance [9]: 16 mL/min/kg | Vd [10]: 3.5 L/kg | Cp [11]: 300 nM | bioavailability [12]: 71% | Cp [13]: 170 nM

COc1cc2ncnc(Nc3cc(Cl)ccc3F)c2cc1OCC1CCN(C)CC1
pKa [1]: 9.3

COc1cc2ncnc(Nc3cccc(Cl)c3F)c2cc1OCCCN1CCOCC1
Cp [6]: 10 nM | Cp [7]: 680 nM | AUC [8]: 0.94 µM·h | clearance [9]: 29 mL/min/kg | Vd [10]: 4.3 L/kg | Cp [11]: 430 nM | bioavailability [12]: 73% | Cp [13]: 410 nM

COc1cc2ncnc(Nc3cccc(Cl)c3F)c2cc1OC1CCN(S(C)(=O)=O)CC1
AUC [2]: 1.18 µM·h | AUC [14]: 450 µM·h | AUC [15]: 286 µM·h | AUC [16]: 225 µM·h | bioavailability [3]: 45% | half-life [17]: 1.6 h | Cmax [18]: 30600 nM | Cmax [19]: 23900 nM | clearance [4]: 13 mL/min/kg | Cmax [20]: 36800 nM | Vd [5]: 1.5 L/kg

COc1cc2ncnc(Nc3ccc(F)c(Cl)c3)c2cc1OCCCN1CCOCC1 [GEFITINIB]
Cp [6]: 10 nM | AUC [14]: 85.9 µM·h | AUC [16]: 78.7 µM·h | Cp [7]: 130 nM | AUC [8]: 0.32 µM·h | Vd [10]: 5.8 L/kg | Cp [11]: 260 nM | bioavailability [12]: 56% | Cp [13]: 150 nM | half-life [21]: 37 h | half-life [17]: 7 h | Cmax [18]: 8100 nM | half-life [22]: 28 h | Vd [23]: 5.8 L/kg | Cmax [20]: 6700 nM

COc1cc2c(Nc3ccc(Br)cc3F)ncnc2cc1OCC1CCN(C)CC1 [VANDETANIB]
pKa [1]: 9.3
